Data published in patent EP1266900A1, “Carbamates of rapamycin” (Wyeth, priority 1992, dated 1994).
Where two headings read alike, the source gives them in different places.

Tests used:
[1] = system: cells from the thymus of normal BALB/c mice; test: comitogen-induced thymocyte proliferation procedure (LAF); format: cell-based; conditions: for IC50: Mus musculus, Thymocyte, 72 h, read-out: LAF IC50; for LAF (ratio): ratio compared with rapamycin, greater than 1 = inhibited thymocyte proliferation to a greater extent than rapamycin
Protocol: (§1) Immunosuppressive activity for representative compounds of this invention was evaluated in an in vitro standard pharmacological test procedure to measure lymphocyte proliferation (LAF) and in an in vivo standard pharmacological test procedure which evaluated the survival time of a pinch skin graft.
The comitogen-induced thymocyte proliferation procedure (LAF) was used as an in vitro measure of the immunosuppressive effects of representative compounds. Briefly, cells from the thymus of normal BALB/c mice are cultured for 72 hours with PHA and IL-1 and pulsed with tritiated thymidine during the last six hours. Cells are cultured with and without various concentrations of rapamycin, cyclosporin A, or test compound. Cells are harvested and incorporated radioactivity is determined. Inhibition of lymphoproliferation is assessed as percent change in counts per minute from non-drug treated controls. For each compound evaluated, rapamycin was also evaluated for the purpose of comparison. An IC50 was obtained for each test compound as well as for rapamycin. […] A positive ratio indicates immunosuppressive activity. […] Calculation of the ratio is shown below. (()^3 H-control thymus cells -)/(()^3 H-control thymus cells -)(()^3 H-rapamycin-treated thymus cells)/(()^3 H-test compound-treated cells) [formula]

pinch skin graft = pinch skin graft survival time, in vivo; design: species or system male C3H(H-2K) recipients; conditions: dose of 4 mg/kg; intraperitoneally or orally; untreated grafts usually rejected within 6-7 days
Protocol: as §1
Representative compounds of this invention were also evaluated in an in vivo test procedure designed to determine the survival time of pinch skin graft from male BAB/c donors transplanted to male C3H(H-2K) recipients. The method is adapted from Billingham R.E. and Medawar P.B., J. Exp. Biol. 28:385-402, (1951). Briefly, a pinch skin graft from the donor was grafted on the dorsum of the recipient as a allograft, and an isograft was used as control in the same region. The recipients were treated with either varying concentrations of test compounds intraperitoneally or orally. Rapamycin was used as a test control. Untreated recipients serve as rejection control. The graft was monitored daily and observations were recorded until the graft became dry and formed a blackened scab. This was considered as the rejection day. The mean graft survival time (number of days ± S.D.) of the drug treatment group was compared with the control group. […] Results are expressed as the mean survival time in days. Untreated (control) pinch skin grafts are usually rejected within 6-7 days. The results shown in Table 1 are based on a dose of 4 mg/kg of test compound. A survival time of 12.0 ± 1.7 days was obtained for rapamycin at 4 mg/kg.

[2] = thymocytes cultured for 72 hours with PHA and IL-1, tritiated thymidine incorporation

Row | SMILES | IC50 [1] [nM] | Skin Graft (days ± SD), mean survival time (pinch skin graft) [days] | IC50 [1, 2] [nM] | LAF (ratio) [1]
1 | CO[C@H]1C[C@@H]2CC[C@@H](C)[C@@](O)(O2)C(=O)C(=O)N2CCCC[C@H]2C(=O)O[C@H]([C@H](C)C[C@@H]2CC[C@@H](O)[C@H](OC)C2)CC(=O)[C@H](C)/C=C(\C)[C@@H](O)[C@@H](OC)C(=O)[C@H](C)C[C@H](C)/C=C/C=C/C=C/1C [rapamycin, Rapamycin] | 2.2 to 9.9 | 12.0 ± 1.7 |  | 
2 | CO[C@H]1C[C@@H]2CC[C@@H](C)[C@@](O)(O2)C(=O)C(=O)N2CCCC[C@H]2C(=O)O[C@H]([C@H](C)C[C@@H]2CC[C@@H](OC(N)=O)[C@H](OC)C2)CC(=O)[C@H](C)/C=C(\C)[C@@H](O)[C@@H](OC)C(=O)[C@H](C)C[C@H](C)/C=C/C=C/C=C/1C [Example 1, Rapamycin 42-ester with carbamic acid] |  | 11.7 ± 0.5 | 1.7 | 1.29
3 | CO[C@H]1C[C@@H]2CC[C@@H](C)[C@@](O)(O2)C(=O)C(=O)N2CCCC[C@H]2C(=O)O[C@H]([C@H](C)C[C@@H]2CC[C@@H](OC(=O)NCc3ccncc3)[C@H](OC)C2)CC(=O)[C@H](C)/C=C(\C)[C@@H](O)[C@@H](OC)C(=O)[C@H](C)C[C@H](C)/C=C/C=C/C=C/1C [Example 14, Rapamycin 42-ester with 4-pyridinylmethyl carbamic acid] |  | 9.17 ± 1.7 | 0.5 | 3.8
4 | CO[C@H]1C[C@@H]2CC[C@@H](C)[C@@](O)(O2)C(=O)C(=O)N2CCCC[C@H]2C(=O)O[C@H]([C@H](C)C[C@@H]2CC[C@@H](OC(=O)NN)[C@H](OC)C2)CC(=O)[C@H](C)/C=C(\C)[C@@H](O)[C@@H](OC)C(=O)[C@H](C)C[C@H](C)/C=C/C=C/C=C/1C [Example 4, Rapamycin 42-ester with aminocarbamic acid] |  | 9.8 ± 0.8 | 10 | 0.45
